# According to patent US6967075B2 (priority 2000, dated 2005):
# Entries after “also recorded” stand apart in the source; their conditions may differ.
# Target: T1, HCV NS5B (Hepatitis C virus genotype 1b, UniProt P26663)
# Assay: not given
# Assay type: biochemical
# Settings: not given
# Target sequence in this assay (P26663 2420-2989 limits assumed): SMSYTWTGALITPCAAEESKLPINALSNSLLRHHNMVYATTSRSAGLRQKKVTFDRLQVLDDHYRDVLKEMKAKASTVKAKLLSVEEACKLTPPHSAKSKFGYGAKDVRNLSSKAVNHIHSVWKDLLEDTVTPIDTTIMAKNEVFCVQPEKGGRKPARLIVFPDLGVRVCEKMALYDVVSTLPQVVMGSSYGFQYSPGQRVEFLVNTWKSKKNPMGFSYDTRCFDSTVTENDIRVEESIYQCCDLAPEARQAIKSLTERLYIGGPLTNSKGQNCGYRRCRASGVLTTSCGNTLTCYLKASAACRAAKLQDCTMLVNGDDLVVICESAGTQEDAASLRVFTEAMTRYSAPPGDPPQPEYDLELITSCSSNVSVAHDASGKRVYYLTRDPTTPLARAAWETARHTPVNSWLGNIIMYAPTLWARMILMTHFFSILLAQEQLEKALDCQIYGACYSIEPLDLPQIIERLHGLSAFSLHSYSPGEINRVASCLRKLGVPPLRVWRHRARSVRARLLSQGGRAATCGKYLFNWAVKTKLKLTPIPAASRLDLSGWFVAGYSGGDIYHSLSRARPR
row,Molecule,extension/utilization of end-labeled RNA
1,"5′ GCA UGG GCC C 3′ [sym/sub RNA, reference compound]",no primer extension was observed

# Target: T1, HCV NS5B
# Assay: Nucleotide incorporation assay using end-labeled primers
# Assay type: biochemical
# Settings: 5 μM template, 10 μM end-labeled primer, 100 μM NTP, 30° C. for 30 min
# Method: Nucleotide incorporation assay using end-labeled primers. A standard nucleotide incorporation reaction was performed in a 20 μl volume, containing 50 mM HEPES (pH 7.3), 10 mM β-mecaptoethanol, 50 mM NaCl, 5 mM MgCl2, 5 μM of template RNA, 10 μM of end-labeled primer, 3 to 5 μM of polymerase protein and 100 μM of NTP substrate, as described. Single nucleotide incorporation by HCV replicase was tested using radiolabeled diguanylate (^33pGpG) as a primer and three RNA templates corresponding to SEQ ID NO: 11 [(ACC)7], SEQ ID NO: 9 [(tJCC)7], and SEQ ID NO: 10 [(GCC)7]. Reactions involved ^33pGpG primer alone and with (1) (ACC)7 RNA as the template plus either no NTP, 100 μM UTP or 100 μM ATP, (2) (UCC)7 RNA as the template plus either no NTP, 100 μM ATP or 100 μM CTP, and (3) (GCC)7 RNA as the template plus either no NTP, 100 μM CTP or 100 μM ATP. To show the efficiency of guanylate primers of different length in priming nucleotide incorporation, four template-primer pairs were tested in a standard primer-extension assay: […] (SEQ ID NO: 10)/^33pGG; […] (SEQ ID NO: 12)/^33pGGG; […],(SEQ ID NO-13)/^33pGGGG (SEQ ID NO: 32); and […] (SEQ ID NO: 7)/^33pGpqGG (SEQ ID NO: 33). Reactions were performed using 100 μM of CTP or without a nucleotide substrate.
# Reactions contained (UCC)7 alone, (UCC)7 plus 100 μM of ATP, (UCC)6AAA alone, or (UCC)6AAA plus 100 μM of ATP. In addition, RNAs of SEQ ID NOS: 11, 30 and 31 were tested for single-nucleotide incorporation with ^33pGpG as the primer.
# To show the minimum length requirement for a template RNA of the invention RNA templates of decreasing length (21 to 4-nt), e.g., SEQ ID NOS: 8 and 14-20 were tested for the ability to direct single-nucleotide incorporation using ^33pGpG as the primer. All reactions contained 100 μM of ATP and one template RNA. Multiple cycles of nucleotide incorporation were performed using a 10-mer RNA and ^33pGpG as the primer. Reactions contained either 100 μM of ATP alone, or 100 μM each of ATP and CTP, or 100 μM each of ATP, CTP and GTP. The reactions were quenched at different times from 15 to 900 seconds.
# Various dinucleotide primers for RNA synthesis and nucleotide incorporation using HCV 3′ terminal sequences as template were used. The following RNA templates were used: 5′ AAAAAACAGUCC 3′ (SEQ ID NO: 17), 5′ AAAACAGUGC 3′ (SEQ ID NO: 21), 5′ AAAAAACAGUCG 3′ (SEQ ID NO: 22), 5′ AAAAAACAGUGG 3′ (SEQ ID NO: 23), 5′ AAAAAACAGUAC 3′ (SEQ ID NO: 24), 5′ AAAAAACAGUCA 3′ (SEQ ID NO: 25), which differ by two residues at the 3′ terminal positions. Dinucleotide primers, ^33pGpG, ^33pGpC, ^33pCpG, ^33pCpC, ^33pGpU and ^33pUpG, were paired with respective templates in the absence or presence of 100 μM ATP substrate. RNA templates, 3′(+) and 3′(−), consisted of the 3′ terminal sequences of positive-strand and negative-strand HCV genome, respectively. Primers ^33pApC and ^33pGpC were used for 3′(+) and 3′(−) RNA, respectively, in the absence of nucleotide substrate and in the presence of ATP or CTP.
# Reaction mixtures were incubated at 30° C. for 30 min, followed by phenol and chloroform extraction and ethanol precipitation in the presence of glycogen carrier. Product was dissolved in a urea/TBE sample buffer (Novex, San Diego, Calif.) and separated on a 23 to 25% PAGE/6 M Urea/1× TBE gel. The gel was then covered with plastic wrap and exposed to an X-ray film.
row,Molecule,nucleotide incorporation (extension of end-labeled primer)
1,"5′ C ACCACCACCACCACCACCAC 3′ (CACCACCACCACCACCACCAC; RNA, backbone not given here) [SEQ ID NO: 31]",significant reduction in activity
2,pGpC [GC],capable of priming nucleotide (AMP) incorporation
3,pGpG [GG],capable of priming nucleotide (AMP) incorporation
4,"5′ UCU GCA GAU CAU GU 3′ (UCUGCAGAUCAUGU; RNA, backbone not given here) [SEQ ID NO: 26, 3′ terminus of HCV positive-strand RNA genome]",single-nucleotide incorporation was detected
5,"5′ ACCACCACCACCACCACCACC 3′ (ACCACCACCACCACCACCACC; RNA, backbone not given here) [(ACC)7]",single nucleotide incorporation was observed only when UTP was used
6,"GGGG (5' 33P label, further chemistry not given here) [^33pGGGG]",detrimental to the activity
7,GGG [^33pGGG],supported nucleotide incorporation with the highest efficiency
8,"5′ CC ACC ACC ACC ACC ACC ACCA 3′ (CCACCACCACCACCACCACCA; RNA, backbone not given here) [SEQ ID NO: 30]",significant reduction in activity
9,"GGGGG (RNA, backbone not given here; further chemistry not fully specified) [^33pGGGGG]",detrimental to the activity
10,"5′ GCCGCCGCCGCCGCCGCCGCC 3′ (GCCGCCGCCGCCGCCGCCGCC; RNA, backbone not given here) [(GCC)7]","only the correct nucleotide, ATP or CTP, resulted in primer extension"
11,"5′ UCCUCCUCCUCCUCCUCCUCC 3′ (UCCUCCUCCUCCUCCUCCUCC; RNA, backbone not given here) [(UCC)7]","only the correct nucleotide, ATP or CTP, resulted in primer extension"
12,"5′ AUC AGG GGG CUG GC 3′ (AUCAGGGGGCUGGC; RNA, backbone not given here) [SEQ ID NO: 27, 3′ terminus of HCV negative-strand RNA genome]",single-nucleotide incorporation was detected; also recorded: higher overall activity

# Same assay, conditions: 5 μM template, 10 μM end-labeled primer, 100 μM NTP, 30° C. for 30 min; listed as 33pGG
row,Molecule,nucleotide incorporation (extension of end-labeled primer)
1,pGpG [GG],supported nucleotide incorporation with the highest efficiency

# Target: HCV NS5B replicase (Hepatitis C virus genotype 1b, UniProt P26663)
# Assay: not given
# Settings: cited from earlier work
# Chain of HCV NS5B replicase (P26663 2420-3010 limits assumed): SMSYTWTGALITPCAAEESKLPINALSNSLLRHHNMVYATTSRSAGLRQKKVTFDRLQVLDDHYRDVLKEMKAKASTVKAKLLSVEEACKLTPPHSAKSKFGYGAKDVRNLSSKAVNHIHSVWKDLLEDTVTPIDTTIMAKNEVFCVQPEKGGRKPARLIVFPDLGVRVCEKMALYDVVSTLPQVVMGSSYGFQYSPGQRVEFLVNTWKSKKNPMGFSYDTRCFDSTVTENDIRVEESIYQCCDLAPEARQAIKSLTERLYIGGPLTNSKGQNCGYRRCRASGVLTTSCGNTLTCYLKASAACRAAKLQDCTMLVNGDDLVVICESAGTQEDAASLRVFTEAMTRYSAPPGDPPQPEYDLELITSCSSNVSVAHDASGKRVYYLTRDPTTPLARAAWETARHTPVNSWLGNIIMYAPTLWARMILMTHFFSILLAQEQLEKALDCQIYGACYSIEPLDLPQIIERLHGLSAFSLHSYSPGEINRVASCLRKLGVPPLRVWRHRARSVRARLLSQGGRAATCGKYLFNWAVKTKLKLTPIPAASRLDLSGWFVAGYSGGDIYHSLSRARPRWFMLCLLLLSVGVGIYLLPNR
row,Molecule,inhibition of HCV NS5B replicase
1,"CN1C(=O)[C@]23CC4=CC=C[C@H](O)[C@H]4N2C(=O)[C@@]1(CO)SS3 [Gliotoxin, gliotoxin]",inhibits HCV NS5B replicase in a dose dependent manner

# Target: poliovirus 3D RdRp (Poliovirus type 1, UniProt P03300)
# Assay: not given
# Settings: cited from earlier work
# Chain of poliovirus 3D RdRp (P03300 1749-2209 limits assumed): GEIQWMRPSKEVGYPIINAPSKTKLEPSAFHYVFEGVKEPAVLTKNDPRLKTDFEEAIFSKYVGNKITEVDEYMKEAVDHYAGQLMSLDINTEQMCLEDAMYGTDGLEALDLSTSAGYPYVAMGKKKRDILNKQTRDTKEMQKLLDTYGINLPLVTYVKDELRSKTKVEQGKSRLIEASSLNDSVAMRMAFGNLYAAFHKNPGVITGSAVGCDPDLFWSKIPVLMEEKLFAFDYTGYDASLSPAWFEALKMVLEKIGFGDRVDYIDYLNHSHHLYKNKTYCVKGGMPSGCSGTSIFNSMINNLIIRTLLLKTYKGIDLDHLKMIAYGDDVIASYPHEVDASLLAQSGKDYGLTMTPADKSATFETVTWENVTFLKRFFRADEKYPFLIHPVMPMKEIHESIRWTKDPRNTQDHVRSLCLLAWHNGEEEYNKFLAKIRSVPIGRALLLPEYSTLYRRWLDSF
row,Molecule,inhibition of poliovirus 3D RdRp
1,"CN1C(=O)[C@]23CC4=CC=C[C@H](O)[C@H]4N2C(=O)[C@@]1(CO)SS3 [Gliotoxin, gliotoxin]",known poliovirus 3D RdRp inhibitor
